Assay results published in ChEMBL document CHEMBL3745631, “Discovery of highly potent and selective Bruton's tyrosine kinase inhibitors: Pyridazinone analogs with improved metabolic stability” (Bioorg Med Chem Lett, 2016).

Tests used:
[1] = molecular target: Tyrosine-protein kinase BTK (Mus musculus, UniProt P35991); assay: Inhibition of BTK in Balb/c mouse B cells assessed as inhibition of anti-IgM-stimulated CD86 expression by flow cytometry; assay type: cell-based
[2] = molecular target: Tyrosine-protein kinase Lyn (Homo sapiens) (UniProt P07948); assay: Inhibition of LYN (unknown origin) at 1 uM
Sequence of Tyrosine-protein kinase Lyn (Homo sapiens) (P07948 2-512 limits assumed): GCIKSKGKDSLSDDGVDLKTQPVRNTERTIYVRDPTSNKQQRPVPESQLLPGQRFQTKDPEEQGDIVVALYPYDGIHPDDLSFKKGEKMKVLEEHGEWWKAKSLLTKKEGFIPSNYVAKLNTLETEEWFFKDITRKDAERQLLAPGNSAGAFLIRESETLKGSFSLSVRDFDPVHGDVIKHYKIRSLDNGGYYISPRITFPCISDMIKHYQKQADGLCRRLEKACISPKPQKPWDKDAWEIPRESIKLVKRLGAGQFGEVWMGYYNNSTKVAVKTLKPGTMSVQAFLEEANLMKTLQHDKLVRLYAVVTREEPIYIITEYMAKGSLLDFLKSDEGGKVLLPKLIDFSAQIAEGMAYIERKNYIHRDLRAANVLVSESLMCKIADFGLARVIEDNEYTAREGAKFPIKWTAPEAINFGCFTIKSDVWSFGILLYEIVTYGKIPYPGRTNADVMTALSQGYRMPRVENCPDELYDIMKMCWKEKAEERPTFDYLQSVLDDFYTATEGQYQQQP

[3] = molecular target: Mitogen-activated protein kinase kinase kinase 8 (Homo sapiens) (UniProt P41279); assay: Inhibition of Cot (unknown origin) at 1 uM
[4] = molecular target: Calcium/calmodulin-dependent protein kinase type 1 (Homo sapiens) (UniProt Q14012); assay: Inhibition of CaMKI (unknown origin) at 1 uM
[5] = molecular target: Casein kinase I isoform gamma-1 (Homo sapiens) (UniProt Q9HCP0); assay: Inhibition of CK1 gamma1 (unknown origin) at 1 uM
Sequence of Casein kinase I isoform gamma-1 (Homo sapiens) (Q9HCP0 whole entry, looked up, the tested form may be a part, canonical isoform): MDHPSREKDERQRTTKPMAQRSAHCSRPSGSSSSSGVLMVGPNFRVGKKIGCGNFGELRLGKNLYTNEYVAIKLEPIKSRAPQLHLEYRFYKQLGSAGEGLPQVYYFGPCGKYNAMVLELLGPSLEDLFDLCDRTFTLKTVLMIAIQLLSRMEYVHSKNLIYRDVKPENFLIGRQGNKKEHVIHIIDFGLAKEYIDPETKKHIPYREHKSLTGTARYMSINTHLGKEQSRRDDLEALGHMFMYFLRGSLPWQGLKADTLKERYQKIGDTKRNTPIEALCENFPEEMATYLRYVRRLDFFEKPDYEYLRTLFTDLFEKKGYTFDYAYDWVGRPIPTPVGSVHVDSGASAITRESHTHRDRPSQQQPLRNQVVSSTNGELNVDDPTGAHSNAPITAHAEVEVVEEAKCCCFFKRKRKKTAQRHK

[6] = molecular target: PAS domain-containing serine/threonine-protein kinase (Homo sapiens) (UniProt Q96RG2); assay: Inhibition of PASK (unknown origin) at 1 uM
[7] = system: Epidermal growth factor receptor (Homo sapiens), P00533 [L858R,T790M]; assay: Inhibition of EGFR T790M,L858R mutant (unknown origin) at 1 uM; assay type: protein assay
[8] = molecular target: Tyrosine-protein kinase SYK (Homo sapiens) (UniProt P43405); assay: Inhibition of Syk (unknown origin) at 1 uM
[9] = molecular target: Dual specificity protein kinase CLK2 (Homo sapiens) (UniProt P49760); assay: Inhibition of CLK2 (unknown origin) at 1 uM
[10] = molecular target: Serine/threonine-protein kinase WNK2 (Homo sapiens) (UniProt Q9Y3S1); assay: Inhibition of WNK2 (unknown origin) at 1 uM
[11] = molecular target: Cyclin-dependent kinase 7/ cyclin H (Homo sapiens) (UniProt P51946+P50613); assay: Inhibition of CDK7/cyclinH (unknown origin) at 1 uM; assay type: protein-complex assay
Salmonella typhimurium = assay: Genotoxicity in Salmonella typhimurium TA98 by Ames test in absence of S9 fraction; assay type: toxicity, organism-based; details: salmonella enterica subsp. enterica serovar typhimurium
[12] = molecular target: Serine/threonine-protein kinase N1 (Homo sapiens) (UniProt Q16512); assay: Inhibition of PRK1 (unknown origin) at 1 uM
[13] = molecular target: NUAK family SNF1-like kinase 1 (Homo sapiens) (UniProt O60285); assay: Inhibition of ARK5 (unknown origin) at 1 uM
[14] = molecular target: Serine/threonine-protein kinase TAO1 (Homo sapiens) (UniProt Q7L7X3); assay: Inhibition of TAO1 (unknown origin) at 1 uM
[15] = molecular target: Mitogen-activated protein kinase kinase kinase kinase 5 (Homo sapiens) (UniProt Q9Y4K4); assay: Inhibition of KHS1 (unknown origin) at 1 uM
[16] = molecular target: Calcium/calmodulin-dependent protein kinase type II subunit alpha (Homo sapiens) (UniProt Q9UQM7); assay: Inhibition of CamK2 alpha (unknown origin) at 1 uM
Sequence of Calcium/calmodulin-dependent protein kinase type II subunit alpha (Homo sapiens) (Q9UQM7 whole entry): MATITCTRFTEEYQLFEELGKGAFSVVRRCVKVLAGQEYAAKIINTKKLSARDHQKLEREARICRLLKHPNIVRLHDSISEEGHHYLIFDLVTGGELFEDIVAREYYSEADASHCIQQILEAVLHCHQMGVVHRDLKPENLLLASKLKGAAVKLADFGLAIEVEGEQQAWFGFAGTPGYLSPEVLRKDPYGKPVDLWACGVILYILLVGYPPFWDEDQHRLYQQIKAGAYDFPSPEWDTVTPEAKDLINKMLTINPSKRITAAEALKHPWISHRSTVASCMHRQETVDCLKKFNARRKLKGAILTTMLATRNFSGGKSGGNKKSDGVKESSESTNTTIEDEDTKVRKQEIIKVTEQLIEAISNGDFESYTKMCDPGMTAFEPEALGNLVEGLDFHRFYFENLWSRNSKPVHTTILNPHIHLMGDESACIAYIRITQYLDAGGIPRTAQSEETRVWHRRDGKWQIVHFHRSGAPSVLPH

[17] = molecular target: RAC-alpha serine/threonine-protein kinase (Homo sapiens) (UniProt P31749); assay: Inhibition of AKT1 (unknown origin) at 1 uM
[18] = molecular target: Ephrin type-B receptor 3 (Homo sapiens) (UniProt P54753); assay: Inhibition of EphB3 (unknown origin) at 1 uM
[19] = molecular target: Insulin receptor-related protein (Homo sapiens) (UniProt P14616); assay: Inhibition of IRR (unknown origin) at 1 uM
[20] = molecular target: Interleukin-1 receptor-associated kinase 4 (Homo sapiens) (UniProt Q9NWZ3); assay: Inhibition of IRAK4 (unknown origin) at 1 uM
[21] = molecular target: Serine/threonine-protein kinase BRSK1 (Homo sapiens) (UniProt Q8TDC3); assay: Inhibition of BrSK1 (unknown origin) at 1 uM
[22] = molecular target: Platelet-derived growth factor receptor alpha (Homo sapiens) (UniProt P16234); assay: Inhibition of PDGFR alpha (unknown origin) at 1 uM
[23] = molecular target: Aurora kinase B (Homo sapiens) (UniProt Q96GD4); assay: Inhibition of AuroraB (unknown origin) at 1 uM
[24] = molecular target: Ribosomal protein S6 kinase alpha-2 (Homo sapiens) (UniProt Q15349); assay: Inhibition of Rsk3 (unknown origin) at 1 uM
[25] = molecular target: CDK2/Cyclin A2 (Homo sapiens) (UniProt P24941+P20248); assay: Inhibition of CDK2/cyclinA (unknown origin) at 1 uM; assay type: protein-complex assay
[26] = molecular target: Wee1-like protein kinase (Homo sapiens) (UniProt P30291); assay: Inhibition of WEE1 (unknown origin) at 1 uM
[27] = molecular target: Activin receptor type-1 (Homo sapiens) (UniProt Q04771); assay: Inhibition of ALK2 (unknown origin) at 1 uM
[28] = molecular target: Mitogen-activated protein kinase kinase kinase 5 (Homo sapiens) (UniProt Q99683); assay: Inhibition of ASK1 (unknown origin) at 1 uM
Sequence of Mitogen-activated protein kinase kinase kinase 5 (Homo sapiens) (Q99683 whole entry): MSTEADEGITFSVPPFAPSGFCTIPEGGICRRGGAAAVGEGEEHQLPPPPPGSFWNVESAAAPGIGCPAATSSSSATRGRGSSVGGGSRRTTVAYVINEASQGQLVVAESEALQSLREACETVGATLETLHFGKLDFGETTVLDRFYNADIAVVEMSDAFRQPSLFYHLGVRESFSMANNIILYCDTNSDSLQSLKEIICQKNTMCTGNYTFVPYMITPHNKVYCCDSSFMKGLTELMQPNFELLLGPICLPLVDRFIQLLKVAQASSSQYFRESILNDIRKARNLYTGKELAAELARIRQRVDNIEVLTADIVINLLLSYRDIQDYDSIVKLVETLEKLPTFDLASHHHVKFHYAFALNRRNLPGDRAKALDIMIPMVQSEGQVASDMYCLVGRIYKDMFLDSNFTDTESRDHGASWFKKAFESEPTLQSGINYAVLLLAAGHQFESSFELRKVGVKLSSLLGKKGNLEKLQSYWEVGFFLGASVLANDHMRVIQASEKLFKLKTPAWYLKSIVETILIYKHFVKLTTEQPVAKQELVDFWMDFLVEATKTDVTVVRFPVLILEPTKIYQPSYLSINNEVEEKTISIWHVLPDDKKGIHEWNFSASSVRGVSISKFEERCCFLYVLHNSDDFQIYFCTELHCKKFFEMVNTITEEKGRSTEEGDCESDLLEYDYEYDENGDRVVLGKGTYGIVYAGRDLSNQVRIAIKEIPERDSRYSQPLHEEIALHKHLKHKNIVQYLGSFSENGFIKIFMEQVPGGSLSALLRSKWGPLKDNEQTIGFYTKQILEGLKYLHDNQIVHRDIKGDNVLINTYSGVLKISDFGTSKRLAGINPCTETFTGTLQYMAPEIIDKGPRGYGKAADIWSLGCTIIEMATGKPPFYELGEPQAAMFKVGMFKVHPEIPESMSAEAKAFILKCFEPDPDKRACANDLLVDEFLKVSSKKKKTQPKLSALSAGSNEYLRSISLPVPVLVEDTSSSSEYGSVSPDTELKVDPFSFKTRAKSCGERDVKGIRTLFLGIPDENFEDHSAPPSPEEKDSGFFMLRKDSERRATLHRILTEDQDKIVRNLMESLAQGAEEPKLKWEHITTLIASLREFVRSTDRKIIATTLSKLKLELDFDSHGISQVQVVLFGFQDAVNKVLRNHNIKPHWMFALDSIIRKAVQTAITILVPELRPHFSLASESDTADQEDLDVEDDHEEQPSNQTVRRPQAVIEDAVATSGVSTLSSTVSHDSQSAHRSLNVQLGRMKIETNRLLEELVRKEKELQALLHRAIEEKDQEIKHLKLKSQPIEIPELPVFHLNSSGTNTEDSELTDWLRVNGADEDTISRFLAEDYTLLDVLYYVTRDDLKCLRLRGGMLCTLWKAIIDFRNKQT

[29] = molecular target: Tyrosine-protein kinase Srms (Homo sapiens) (UniProt Q9H3Y6); assay: Inhibition of Srm (unknown origin) at 1 uM
[30] = molecular target: Tyrosine-protein kinase Blk (Homo sapiens) (UniProt P51451); assay: Inhibition of Blk (unknown origin) at 1 uM
[31] = molecular target: Mitogen-activated protein kinase kinase kinase 2 (Homo sapiens) (UniProt Q9Y2U5); assay: Inhibition of MEKK2 (unknown origin) at 1 uM
[32] = molecular target: Serine/threonine-protein kinase 24 (Homo sapiens) (UniProt Q9Y6E0); assay: Inhibition of MST3 (unknown origin) at 1 uM
[33] = molecular target: Mitogen-activated protein kinase 8 (Homo sapiens) (UniProt P45983); assay: Inhibition of JNK1 alpha1 (unknown origin) at 1 uM
Sequence of Mitogen-activated protein kinase 8 (Homo sapiens) (P45983 whole entry): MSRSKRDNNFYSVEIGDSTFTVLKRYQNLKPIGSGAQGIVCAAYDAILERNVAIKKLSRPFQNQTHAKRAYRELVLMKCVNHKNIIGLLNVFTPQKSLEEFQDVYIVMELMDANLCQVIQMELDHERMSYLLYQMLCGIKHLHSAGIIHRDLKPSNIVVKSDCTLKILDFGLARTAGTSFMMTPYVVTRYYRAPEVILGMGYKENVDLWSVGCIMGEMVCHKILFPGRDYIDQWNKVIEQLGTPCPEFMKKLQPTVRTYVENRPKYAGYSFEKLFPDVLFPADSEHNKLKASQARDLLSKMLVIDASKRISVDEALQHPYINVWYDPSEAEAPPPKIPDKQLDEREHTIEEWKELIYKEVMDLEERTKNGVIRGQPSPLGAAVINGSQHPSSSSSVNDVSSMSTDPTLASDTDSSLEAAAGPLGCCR

[34] = molecular target: DNA-dependent protein kinase catalytic subunit (Homo sapiens) (UniProt P78527); assay: Inhibition of DNA-PK (unknown origin) at 1 uM
[35] = molecular target: Mitogen-activated protein kinase kinase kinase 10 (Homo sapiens) (UniProt Q02779); assay: Inhibition of MLK2 (unknown origin) at 1 uM
[36] = molecular target: Ephrin type-A receptor 8 (Homo sapiens) (UniProt P29322); assay: Inhibition of EphA8 (unknown origin) at 1 uM
[37] = molecular target: Insulin-like growth factor 1 receptor (Homo sapiens) (UniProt P08069); assay: Inhibition of IGF1R (unknown origin) at 1 uM
[38] = molecular target: Protein-tyrosine kinase 2-beta (Homo sapiens) (UniProt Q14289); assay: Inhibition of FAK2 (unknown origin) at 1 uM
Homo sapiens = species: Homo sapiens; assay: Inhibition of PKA (unknown origin) at 1 uM
[39] = molecular target: Rho-associated protein kinase 1 (Homo sapiens) (UniProt Q13464); assay: Inhibition of ROCK1 (unknown origin) at 1 uM
[40] = molecular target: Calcium/calmodulin-dependent protein kinase kinase 1 (Homo sapiens) (UniProt Q8N5S9); assay: Inhibition of CAMKK1 (unknown origin) at 1 uM
[41] = molecular target: Protein kinase C epsilon type (Homo sapiens) (UniProt Q02156); assay: Inhibition of PKCepsilon (unknown origin) at 1 uM
Sequence of Protein kinase C epsilon type (Homo sapiens) (Q02156 whole entry): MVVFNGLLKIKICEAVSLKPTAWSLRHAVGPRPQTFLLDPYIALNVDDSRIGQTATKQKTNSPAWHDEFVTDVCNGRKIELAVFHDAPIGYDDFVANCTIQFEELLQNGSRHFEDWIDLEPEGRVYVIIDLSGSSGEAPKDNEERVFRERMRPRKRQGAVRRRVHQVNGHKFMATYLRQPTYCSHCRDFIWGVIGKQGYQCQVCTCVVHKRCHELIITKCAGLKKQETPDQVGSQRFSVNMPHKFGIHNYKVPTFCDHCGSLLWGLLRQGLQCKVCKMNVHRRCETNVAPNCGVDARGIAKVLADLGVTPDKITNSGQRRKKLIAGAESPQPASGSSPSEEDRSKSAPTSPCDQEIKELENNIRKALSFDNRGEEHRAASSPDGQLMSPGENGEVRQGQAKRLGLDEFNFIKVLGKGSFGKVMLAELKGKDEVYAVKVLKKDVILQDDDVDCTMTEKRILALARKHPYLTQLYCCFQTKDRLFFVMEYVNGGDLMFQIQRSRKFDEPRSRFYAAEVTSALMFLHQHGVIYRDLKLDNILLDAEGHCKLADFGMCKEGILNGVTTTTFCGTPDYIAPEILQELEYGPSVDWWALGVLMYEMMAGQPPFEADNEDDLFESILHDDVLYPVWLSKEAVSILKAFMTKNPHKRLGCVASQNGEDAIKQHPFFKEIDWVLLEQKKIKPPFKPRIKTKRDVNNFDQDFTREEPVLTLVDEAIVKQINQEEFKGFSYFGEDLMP

[42] = molecular target: Mitogen-activated protein kinase kinase kinase kinase 2 (GCK) (Homo sapiens) (UniProt Q12851); assay: Inhibition of GCK (unknown origin) at 1 uM
Sequence of Mitogen-activated protein kinase kinase kinase kinase 2 (GCK) (Homo sapiens) (Q12851 whole entry, looked up): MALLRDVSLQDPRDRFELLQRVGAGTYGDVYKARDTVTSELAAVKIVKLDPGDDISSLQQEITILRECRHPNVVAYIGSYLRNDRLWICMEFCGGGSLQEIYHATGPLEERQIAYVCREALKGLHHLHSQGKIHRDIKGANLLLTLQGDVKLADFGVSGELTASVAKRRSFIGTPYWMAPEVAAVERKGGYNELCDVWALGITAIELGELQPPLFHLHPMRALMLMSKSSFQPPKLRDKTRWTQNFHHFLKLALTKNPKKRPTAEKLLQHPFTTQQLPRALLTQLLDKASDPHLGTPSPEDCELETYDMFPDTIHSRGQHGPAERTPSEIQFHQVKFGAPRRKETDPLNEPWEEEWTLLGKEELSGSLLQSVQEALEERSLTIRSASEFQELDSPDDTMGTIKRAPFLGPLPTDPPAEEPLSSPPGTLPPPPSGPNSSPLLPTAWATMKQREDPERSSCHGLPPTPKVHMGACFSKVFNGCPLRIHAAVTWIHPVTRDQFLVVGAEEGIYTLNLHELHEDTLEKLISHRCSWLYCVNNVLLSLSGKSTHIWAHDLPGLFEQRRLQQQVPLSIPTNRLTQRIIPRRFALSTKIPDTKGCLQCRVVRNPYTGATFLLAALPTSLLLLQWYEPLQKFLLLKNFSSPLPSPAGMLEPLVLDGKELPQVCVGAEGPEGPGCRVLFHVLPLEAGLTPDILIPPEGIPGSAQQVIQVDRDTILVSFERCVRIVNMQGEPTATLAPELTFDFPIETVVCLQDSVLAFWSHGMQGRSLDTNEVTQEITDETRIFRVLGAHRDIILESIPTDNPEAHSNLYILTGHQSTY

Compound Cc1c(-c2cc(Nc3cc4n(n3)CCN(C)C4)c(=O)[nH]n2)ccc(F)c1NC(=O)c1cc2ccccc2s1 has an IC50 [1] of 91 nM, an inhibition [2] of 23.1% and an inhibition [3] of 20.1%. It also gave an inhibition [4] of 6.3%, an inhibition [5] of 6.2% and an inhibition [6] of 6.2%. It also gave an inhibition [7] of 6.1%, an inhibition [8] of 5.6% and an inhibition [9] of -7%. For the same compound, the inhibition [10] was -7.5%, the inhibition [11] was -7.7% and the Activity (Salmonella typhimurium) was “Non-toxic”. For the same compound, the inhibition [12] was -3.7%, the inhibition [13] was -3.8% and the inhibition [14] was -3.8%. It also gave an inhibition [15] of 17.3%, an inhibition [16] of 2.8% and an inhibition [17] of 2.5%. The inhibition [18] was 2.5%, the inhibition [19] was 2.3% and the inhibition [20] was 2%. The inhibition [21] was 0.8%, the inhibition [22] was 0.2% and the inhibition [23] was -0.4%. For the same compound, the inhibition [24] was -0.6%, the inhibition [25] was -0.9% and the inhibition [26] was -1.8%. The inhibition [27] was -2.1%, the inhibition [28] was -2.1% and the inhibition [29] was 15.7%. The inhibition [30] was 10.6%, the inhibition [31] was 9.2% and the inhibition [32] was 9%. It also gave an inhibition [33] of 8.7%, an inhibition [34] of 8.5% and an inhibition [35] of 7.3%. For the same compound, the inhibition [36] was 7.2%, the inhibition [37] was 6.4% and the inhibition [38] was 4%. The inhibition (Homo sapiens) was -4.8%, the inhibition [39] was -4.8% and the inhibition [40] was -5.4%. It also gave an inhibition [41] of -6.8% and an inhibition [42] of -9%.
